Experimental data published in US20240166617A1, “PHOSPHOINOSITIDE 3 KINASE BETA INHIBITORS AND COMPOSITIONS AND METHODS THEREOF” (Geode Therapeutics Inc., priority 2021, published 2024).
Where two headings read alike, the source gives them in different places.

Tested on: phosphorylation of AKT in HCC70 cells
Assay: Cellular assay: phosphorylation of AKT in HCC70 cells (western blotting)
Type: cell-based
Details: Homo sapiens, HCC70, 1 h, HCC70 cells, compound 500 nM, 60 min, inhibition of Akt activity from band intensities
Description: Cellular activity of PI3Kβ inhibitors was determined by quantifying the phosphorylation of AKT in HCC70 cells. AKT phosphorylated at Ser473 and Thr308 were measured using western blotting and specific primary antibodies from Cell Signaling (CST), Danvers, MA. On day 1, HCC70 cells (ATCC #CRL-2315) were seeded into Falcon 12-well cell Culture Plate (Corning #353043) at 100,000 cells per well, in 1 ml complete culture medium (RPMI-1640, GIBCO #11875093) containing 10% heat inactivated FBS (GIBCO #10438026), 1% Pen-Strep (GIBCO #15140122) and incubated at 37° AC, 5% CO2 overnight. On day 2, compound (500 nM) or DMSO (0.1%, Sigma Aldrich #8418) was added and cells were further incubated for 60 min at 37° AC, 5% CO2 in a total volume of 1 ml fresh medium.
At the end of the cell treatment period, media were removed by aspiration and adherent cells were lysed in 100 uL RIPA buffer (Sigma Aldrich #R0278). Equal volume (15 uL) of proteins was resolved by SDS-PAGE and transferred to PVDF (Millipore #IPFL00010) membrane for immunoblot analysis. Primary antibodies to the following proteins were used for immunoblotting: phosphor-AKT (Ser473) (CST #4060), phosphor-AKT (Thr308) (CST #2965), total AKT (CST #9272). Secondary goat anti-rabbit IgG fluorophore conjugated antibody (Invitrogen #A21109) was used to visualize the indicated proteins on an Odyssey CLx imaging system (Li-Cor). Quantification of band intensities was performed using Odyssey 3.0 software. Inhibition of Akt activity was calculated by band intensities using the formula: […]
Index was evaluated by % of AI. Data represent Index+(20˜60%), ++(60%˜80%), +++(80%˜90%), and ++++>90%.

[1] = read-out: Index of AI (HCC70) p-AKT Thr 308
[2] = read-out: Index of AI (HCC70) p-AKT ser 473

Row | SMILES | inhibition at 0.5 µM [1] | inhibition at 0.5 µM [2]
1 | C/C(O)=C(\C#N)C(=O)Nc1cc(C(C)Nc2cc(F)cc(F)c2)c2oc(N3CCOCC3)cc(=O)c2c1 (centres unmarked) [Compound 23, (Z)-2-cyano-N-(8-(1-((3,5-difluorophenyl)amino)ethyl)-2-morpholino-4-oxo-4H-chromen-6-yl)-3-hydroxybut-2-enamide] | 60 to 80% | 60 to 80%
2 | CN(C)C(=O)c1cc(CN2CCc3cccc(Cl)c32)c2oc(N3CCOCC3)cc(=O)c2c1 [Compound 36, 8-((7-chloroindolin-1-yl)methyl)-N,N-dimethyl-2-morpholino-4-oxo-4H-chromene-6-carboxamide] | > 90% | > 90%
3 | CC(Nc1cc(F)cc(F)c1)c1cc(NC2=NCCN2)cc2c(=O)cc(N3CCOCC3)oc12 (centres unmarked) [Compound 20, 8-(1-((3,5-difluorophenyl)amino)ethyl)-6-((4,5-dihydro-1H-imidazol-2-yl)amino)-2-morpholino-4H-chromen-4-one] | 60 to 80% | 60 to 80%
4 | CC(Nc1cc(F)cc(F)c1)c1cc(Cc2nnc[nH]2)cc2c(=O)cc(N3CCOCC3)oc12 (centres unmarked) [Compound 60, 6-((4H-1,2,4-triazol-3-yl)methyl)-8-(1-((3,5-difluorophenyl)amino)ethyl)-2-morpholino-4H-chromen-4-one] | 80 to 90% | 80 to 90%
5 | CN(C)C(=O)Nc1cc(CNc2cc(F)cc(F)c2)c2oc(N3CCOCC3)cc(=O)c2c1 [Compound 7, 3-(8-(((3,5-difluorophenyl)amino)methyl)-2-morpholino-4-oxo-4H-chromen-6-yl)-1,1-dimethylurea] | 60 to 80% | 60 to 80%
6 | CC(Nc1cc(F)cc(F)c1)c1cc(NC(=O)CC#N)cc2c(=O)cc(N3CCOCC3)oc12 (centres unmarked) [Compound 22, 2-cyano-N-(8-(1-((3,5-difluorophenyl)amino)ethyl)-2-morpholino-4-oxo-4H-chromen-6-yl)acetamide] | > 90% | > 90%
7 | CN(C)C(=O)c1cc(CN2CCc3ccc(F)cc32)c2oc(N3CCOCC3)cc(=O)c2c1 [Compound 70, 8-((6-fluoroindolin-1-yl)methyl)-N,N-dimethyl-2-morpholino-4-oxo-4H-chromene-6-carboxamide] | 80 to 90% | 80 to 90%
8 | CNC(=O)c1cc(CN2CCc3c(F)cc(F)cc32)c2oc(N3CCOCC3)cc(=O)c2c1 [Compound 86, 8-((4,6-difluoroindolin-1-yl)methyl)-N-methyl-2-morpholino-4-oxo-4H-chromene-6-carboxamide] | > 90% | > 90%
9 | CC(Nc1cc(F)cc(F)c1)c1cc(CC(=O)N(C)C)cc2c(=O)cc(N3CCOCC3)oc12 (centres unmarked) [Compound 24, 2-(8-(1-((3,5-difluorophenyl)amino)ethyl)-2-morpholino-4-oxo-4H-chromen-6-yl)-N,N-dimethylacetamide] | > 90% | > 90%
10 | CC(=O)Nc1cc(CNc2cc(F)cc(F)c2)c2oc(N3CCOCC3)cc(=O)c2c1 [Compound 8, N-(8-(((3,5-difluorophenyl)amino)methyl)-2-morpholino-4-oxo-4H-chromen-6-yl)acetamide] | 60 to 80% | 60 to 80%
11 | CN(C)C(=O)c1cc(CN2c3cc(F)cc(F)c3CC2(C)C)c2oc(N3CCOCC3)cc(=O)c2c1 [Compound 66, 8-((4,6-difluoro-2,2-dimethylindolin-1-yl)methyl)-N,N-dimethyl-2-morpholino-4-oxo-4H-chromene-6-carboxamide] | 80 to 90% | 80 to 90%
12 | CC(c1cc(C(=O)N2CC[C@@H](N(C)C)C2)cn2c(=O)cc(N3CCOCC3)nc12)N1CCc2cccc(Cl)c21 (stereo partly drawn) [Compound 97, 9-(1-(7-chloroindolin-1-yl)ethyl)-7-((R)-3-(dimethylamino)pyrrolidine-1-carbonyl)-2-morpholino-4H-pyrido[1,2-a]pyrimidin-4-one] | 20 to 60% | 20 to 60%
13 | CCN(C)C(=O)c1cc(CN2CCc3c(F)cc(F)cc32)c2oc(N3CCOCC3)cc(=O)c2c1 [Compound 79, 8-((4,6-difluoroindolin-1-yl)methyl)-N-ethyl-N-methyl-2-morpholino-4-oxo-4H-chromene-6-carboxamide] | 80 to 90% | 80 to 90%
14 | CN(C)C(=O)c1cc(CN2CCc3c(F)cc(F)cc32)c2nc(N3CCOCC3)cc(=O)n2c1 [Compound 98, 9-((4,6-difluoroindolin-1-yl)methyl)-N,N-dimethyl-2-morpholino-4-oxo-4H-pyrido[1,2-a]pyrimidine-7-carboxamide] | 80 to 90% | 80 to 90%
15 | CN(C)C(=O)c1cc(CN2CCc3c(F)cccc32)c2oc(N3CCOCC3)cc(=O)c2c1 [Compound 68, 8-((4-fluoroindolin-1-yl)methyl)-N,N-dimethyl-2-morpholino-4-oxo-4H-chromene-6-carboxamide] | > 90% | > 90%
16 | CCC(=O)Nc1cc(C(C)Nc2cc(F)cc(F)c2)c2oc(N3CCOCC3)cc(=O)c2c1 (centres unmarked) [Compound 11, N-(8-(1-((3,5-difluorophenyl)amino)ethyl)-2-morpholino-4-oxo-4H-chromen-6-yl)propionamide] | > 90% | > 90%
17 | CC1Cc2c(F)cc(F)cc2N1C(C)c1cc(C(=O)N(C)C)cn2c(=O)cc(N3CCOCC3)nc12 (centres unmarked) [Compound 96, 9-(1-(4,6-difluoro-2-methylindolin-1-yl)ethyl)-N,N-dimethyl-2-morpholino-4-oxo-4H-pyrido[1,2-a]pyrimidine-7-carboxamide] | > 90% | > 90%
18 | CN(C)C(=O)c1cc(CN2CCc3ccccc32)c2oc(N3CCOCC3)cc(=O)c2c1 [Compound 67, 8-(indolin-1-ylmethyl)-N,N-dimethyl-2-morpholino-4-oxo-4H-chromene-6-carboxamide] | 60 to 80% | 60 to 80%
19 | C[C@H]1Cc2c(F)cccc2N1Cc1cc(C(=O)N(C)C)cc2c(=O)cc(N3CCOCC3)oc12 (single isomer, unassigned) [Compound 102] | > 90% | > 90%
20 | C[C@H]1Cc2c(F)cc(F)cc2N1Cc1cc(C(=O)N(C)C)cc2c(=O)cc(N3CCOCC3)oc12 (single isomer, unassigned) [Compound 64] | > 90% | > 90%
21 | CC(C)CNC(=O)c1cc(CN2CCc3c(F)cc(F)cc32)c2oc(N3CCOCC3)cc(=O)c2c1 [Compound 85, 8-((4,6-difluoroindolin-1-yl)methyl)-N-isobutyl-2-morpholino-4-oxo-4H-chromene-6-carboxamide] | 60 to 80% | 60 to 80%
22 | CC(C)NC(=O)c1cc(CN2CCc3c(F)cc(F)cc32)c2oc(N3CCOCC3)cc(=O)c2c1 [Compound 81, 8-((4,6-difluoroindolin-1-yl)methyl)-N-isopropyl-2-morpholino-4-oxo-4H-chromene-6-carboxamide] | 60 to 80% | 60 to 80%
